Data taken from publication PMC7125202, “Targeting of radioactive platinum-bisphosphonate anticancer drugs to bone of high metabolic activity” (Scientific Reports, 2020).
“Also recorded” adds a separate entry of the source.

Tests used:
[1] = In vivo biodistribution of cold Pt-species, Pt quantified by ICP-MS; set-up: species or system C57Bl/6N mice; conditions: 24 h after i.v. injection
Protocol: The Pt-BP and Pt(NO3)2(en) complexes were administered intravenously in the tail vein of C57BL/6N mice (n = 5 per each platinum complex). Sterile saline solution (0.9% NaCl) was used to dissolve platinum complexes. The concentration of injected Pt-BP or Pt(NO3)2(en) solutions was 2.5 mM platinum, calculated based on the maximum tolerated dose for cisplatin of 6 mg per kg body weight of the mice[37]. The mice were euthanized with CO2 24 h after injection, after which blood (approximately 600 mg per mouse), liver, spleen, kidneys, heart, lungs, and bones (femur, humerus, tibia, and spine) were harvested. Approximately half of the tissues were prepared for inductively coupled plasma-mass spectrometry (ICP-MS) analysis by digestion in 65% (v/v) nitric acid at 75 °C for approximately three days until the tissues were digested completely. Each tissue was cut into three samples and the samples were weighed prior to digestion in nitric acid. The digested solutions were diluted with up to 6 ml of Milli-Q water to obtain 2% (v/v) nitric acid in order to measure platinum concentrations by ICP-MS (X series I, Thermo Electron Corporation). The detection limit for determining platinum concentration with ICP-MS was 1 ppb. The standard solutions were prepared from 1000 mg·1^−1 platinum ICP standard Certipur (1.70341.0100, Merck) ranging from 1 ppb to 2500 ppb. The measured isotopes for platinum were ^194Pt, ^195Pt, ^196Pt, and ^198Pt. Furthermore, scandium (^45Sc) was added as an internal standard, which was prepared with 1000 mg·1^−1 scandium standard Certipur (1.19513.0100, Merck) to correct for matrix effects and long-term fluctuations of the measurement signal. The platinum concentrations in the various tissues were calculated relative to 1 mg of the specific tissue and represented as ng Pt/mgtissue. Three replicates of Pt-BP and Pt(NO3)2(en) solutions with volumes and platinum concentrations identical to the solutions injected to the mice (200 µl and 2.5 mM platinum, respectively) were also analyzed for their platinum content using ICP-MS as control. The percentage of injected dose (%ID) of Pt-BP and Pt(NO3)2(en) in each mouse tissue 24 h after injection was calculated by dividing the total amount of platinum per tissue through the total amount of platinum detected in the control solutions[52].

[2] = test system: genomic DNA; assay: Pt-DNA adducts quantification using High Resolution ICP-MS; type: in vivo, C57Bl/6N mice; conditions: 24 h after i.v. injection
Text: The remaining half of the tissues from all mice were dissected and weighed for DNA extraction. DNA was isolated using DNeasy Blood & Tissue Kit (Qiagen, USA) for soft tissue and ChargeSwitch® gDNA Plant Kit (Thermofisher, USA) for bone samples. The DNA was digested with DNase I Solution (Thermofisher, USA) and filtered using 0.2 µm acrodisc GHP before analysis for Pt content using high resolution-ICP-MS (Element2, Thermo Finnigan). The detection limit for determining the platinum concentration was 2 ng/l. The standard solutions were prepared from 1000 mg·1^−1 platinum ICP standard Certipur (1.70341.0100, Merck) ranging from 5 ppt to 10 ppb. The selected isotopes for platinum were ^194Pt and ^195Pt. Furthermore, thallium (Tl) was added as an internal standard and determined at a molecular mass of 205 Da, which was prepared using a 1000 mg·1^−1 thallium standard (CGTL-1, Inorganic Ventures) to correct for matrix effects and long-term fluctuations of the analytical signal. The Pt-DNA adduct concentration is represented as percentage of Pt involved in adduct formation to the total amount of Pt accumulated in the specific tissue.

[3] = test system: zebrafish embryos; assay: Phenotypic assessment of drug-treated zebrafish embryos; type: in vivo, zebrafish (Danio rerio); conditions: up to a concentration of 100 µM, until 2 days post treatment
Protocol: The zebrafish (Danio rerio) strains were kept under standard conditions (28 °C in E3 buffer) until 48 hours post fertilization (hpf) as described previously. All animal experiments were conducted at larval stages before the point of independent feeding and were in agreement with the animal protection law (Tierschutzgesetz).
48 hpf wildtype embryos were separated into 6 groups (n = 20 embryos/group), i.e., control (untreated) and embryos treated with 5 µM, 10 µM, 50 µM, and 100 µM Pt-BP as well as 30 µM cisplatin. Both types of compounds were added externally to the medium and the embryos were incubated at 33 °C for the duration of the experiment. The embryos were assessed each day for phenotypic toxicity until 2 days post treatment (48 hpt) and imaged live in an Olympus MVX10 microscope.

[4] = test system: lateral line neuromast hair cells; assay: Ototoxicity assay, DASPEI staining; type: in vivo, zebrafish (Danio rerio); conditions: 48 h post treatment, 5, 10 and 50 µM
Protocol: The lateral line neuromast hair cells in embryos were stained with a vital dye to analyse the loss of hair cells after Pt-BP treatment. Cisplatin was used as a control, as it was known to affect hair cells in humans. The fluorescent dye 2-[4-(dimethylamino)styryl]-N-ethylpyridinium iodide (DASPEI) [Molecular Probes, Eugene, OR] was used to stain hair cells in the neuromast as described previously. Larvae were incubated in embryo medium containing 0.005% DASPEI for 15 min, anesthetized in Tricaine MS222 (10 µg/ml) for 5 min, rinsed once in fresh embryo medium, and imaged using Vertebrate automated screening technology (VAST, Union Biometrica), combined with high-speed and super-resolution Zeiss cell observer spinning disk confocal system. The quantification of number of neuromast hair cells in the treated embryos was done manually with confocal microscopy (Zeiss LSM780).

[5] = cited from earlier work

NCCN.NCCN.O.O.O.O=S(=O)([O-])O.[NH3+]CC1(O)P2(=O)[O][Pt][O]P1(=O)[O][Pt][O]2 (stereo not shown) [Pt-BP, dinuclear bis<ethylenediamineplatinum(II) > -2-amino-1-hydroxyethane-1,1-diyl-bisphosphonate complex]
higher affinity for bone compared to Pt(NO3)2(en) [1]: 4.5 fold
Pt uptake in hard tissue ([1]; 2.5 mM Pt): 12.18 ± 0.56 %ID/g
Pt uptake in kidney ([1]; 2.5 mM Pt): 5.70 ± 0.15 %ID/g
Pt uptake in liver ([1]; 2.5 mM Pt): 2.34 ± 0.17 %ID/g
Pt uptake in spleen ([1]; 2.5 mM Pt): 1.22 ± 0.12 %ID/g
Pt accumulation in hard tissue (bone) ([1]; 2.5 mM Pt, normalized for tissue weight): ~ 3 ng Pt/mg tissue
Pt-DNA adduct formation relative to total Pt uptake, all tissues except kidney and spleen [2]: < 0.5%
Pt-DNA adduct formation relative to total Pt uptake, kidney [2]: 2.8%
Pt-DNA adduct formation relative to total Pt uptake, spleen [2]: 1.4%
visible phenotypic effects [3]: did not show any phenotypic abnormality; also recorded: no visible phenotypic effects
ototoxic effect (lateral line neuromast hair cell quantification) [4]: dose-dependent ototoxic effect
stability in neutral aqueous solution ([5]; pH 7.0, room temperature): stable in neutral aqueous solution (pH 7.0, room temperature) for several months
stability in water at pH > 8.0 ([5]; pH > 8.0): rearranges rather than decomposes
